Experiment [1] deals with reserpine-inducd hypothermia in male mice (NMRI strain). In words: Inhibition of reserpine-induced hypothermia in mice (antidepressive action). To be noted: oral; for effectiveness higher than that of imipramine, factor: ED 50 relative to imipramine; for ED50: Mus musculus, 60 minutes before reserpine 2.15 mg/kg s.c., dose inhibiting reserpine-induced hypothermia by 50%, read-out: Antidepressive action ED 50. It counts as in vivo. The protocol:
The antidepressive activity of the substances according to the invention was studied using the following model:
Antidepressant substances inhibit this hypothermic effect, the degree of inhibition depending on the dose. The test substances were administered orally 60 minutes before the reserpine was administered.
The dose which inhibits reserpine-inducd hypothermia by 50%, ie. ED 50, is determined from the linear regression between log dose (mg/kg) and the relative decrease in the hypothermic effect.

Experiment [2] concerns tonic spasms induced by electroshock in female mice (NMRI strain). Kind of experiment: Inhibition of electroshock-induced tonic spasms in mice (anticonvulsive action). To be noted: oral; for ED50: Mus musculus, 1 h, 60 minutes before electroshock, dose inhibiting tonic spasms in 50% of the animals, n/dose=8, read-out: Anticonvulsive action ED 50. Format: in vivo. The protocol: The anticonvulsive action was measured on female mice (NMRI strain) having a weight of 22-26 g. Tonic spasms were induced by electroshock via ear electrodes. Stimulus data: a series of square-wave pulses 4.64 ms in duration and 14.7 mA in amplitude; frequency 100 Hz; duration of series 0.2 sec.
The electroshock was administered 60 minutes after the oral administration of the test compounds, and the appearance of tonic spasms was counted. n/dose=8. The ratios between the effectiveness (% protected animals) and log dose were calculated by probit analysis. ED 50 is the dose which inhibits the tonic spsms in 50% of the animals.

Where a name gives a salt, the structure may show the parent alone.

For `CN1CC[C@@H]2c3ccccc3[C@H](c3ccccc3)C[C@@H]21` [Example 4, (+)-3aS,5S,9bR-3-Methyl-5-phenyl-1,2,3a,4,5,9b-hexahydro-3H-benzo[e]indole], the “effectiveness higher than that of imipramine, factor” value in experiment [1] was “about 45”. Also, the ED50 is 0.087 mg/kg in experiment [1] and roughly 46.4 mg/kg in experiment [2].
Consider `CN1CC[C@@H]2c3ccccc3[C@H](c3ccccc3)C[C@@H]21` (relative stereo) [Example 1, (±)-3aS(R),5S(R),9bR(S)-3-Methyl-5-phenyl-1,2,3a,4,5,9b-hexahydro-3H -benz[e]indole hydrochloride], for which, in experiment [1], the “effectiveness higher than that of imipramine, factor” value is given as “about 45” and the ED50 worked out at 0.082 mg/kg. In addition, in experiment [2], the ED50 was 1.1 mg/kg and the “anticonvulsive effectiveness compared with phenytoin (in words)” value is reported as “equalled or substantially exceeded”.
For the compound `CCN1CC[C@H]2c3ccccc3[C@H](c3ccccc3)C[C@@H]21` (relative stereo) [Example 6, (±)-3aR(S),5R(S),9bR(S)-3-Ethyl-5-phenyl-1,2,3a,4,5,9b-hexahydro-3H-benz[e]indole hydrochloride], the figures for the ED50 in experiment [1] and in experiment [2] were 1.61 mg/kg and 8.81 mg/kg, respectively. For the same compound, in experiment [2], the “anticonvulsive effectiveness compared with phenytoin (in words)” value was “equalled or substantially exceeded”.
With `CN(C)CCCN1c2ccccc2CCc2ccccc21` [imipramine, reference compound], the ED50 in experiment [1] was 3.82 mg/kg.
Consider `CCN1CC[C@@H]2c3ccccc3[C@H](c3ccccc3)C[C@@H]21` (relative stereo) [Example 5, (±)-3aS(R),5S(R),9bR(S)-3-ethyl-5-phenyl-1,2,3a,4,5,9b-hexahydro-3H-benz[e]indole hydrochloride], for which the ED50 in experiment [1] was 0.14 mg/kg; in experiment [2], roughly 100 mg/kg.
Take `CN1CC[C@H]2c3ccccc3[C@H](c3ccccc3)C[C@@H]21` (relative stereo) [Example 2, (±)-3aR(S),5R(S),9bR(S)-3-Methyl-5-phenyl-1,2,3a,4,5,9b-hexahydro-3H-benz[e]indole]: in experiment [1], the ED50 was found to be 5.01 mg/kg.
For the compound `O=C1NC(=O)C(c2ccccc2)(c2ccccc2)N1` [phenytoin, reference compound], in experiment [2], the ED50 amounted to 14.3 mg/kg.
Regarding `CCCN1CC[C@@H]2c3ccccc3[C@H](c3ccccc3)C[C@@H]21` (relative stereo) [Example 7, (±)-3aS(R),5S(R),9bR(S)-3-n-propyl-5-phenyl-1,2,3a,4,5,9b-hexahydro-3H-benz[e]indole hydrochloride], the ED50 was 0.26 mg/kg in experiment [1] and 11.9 mg/kg in experiment [2].
